{
  "source": "paper PMC10955127",
  "about": "(Frontiers in Pharmacology, 2024)",
  "remark": "listed apart in the source",
  "key": {"TSHR": {"system": "TSHR", "parameters": "method as in ToxCast database", "conditions": "ref ToxCast database; cited from earlier work"}, "estrogen receptor [1]": {"system": "estrogen receptor", "parameters": "method as in ToxCast database", "conditions": "ref ToxCast database; cited from earlier work"}, "in vitro": {"assay": "in vitro", "conditions": "human, plasma"}, "thyroid pathway [2]": {"system": "thyroid pathway", "parameters": "method as in ToxCast database", "conditions": "ref ToxCast database; cited from earlier work"}, "[3]": {"system": "panel of 83 pharmacological targets", "description": "The set of targets was extended to broaden the biological coverage.\nResults showing an inhibition or stimulation higher than 50% are considered to represent significant effects (i.e. a “hit”)."}, "estrogen receptor [4]": {"system": "estrogen receptor", "parameters": "method as in ToxCast database", "conditions": "ref ToxCast database; cited from earlier work", "remark": "listed apart in the source"}, "[5]": {"procedure": "Figure 8 provides an overview of the tiered workflow and the related in silico and in vitro NAMs used to calculate the MoIE. […] Since this assessment is conducted using plasma concentrations rather than external doses, the comparison is an MoIE.\nIn this assessment, the total plasma concentrations were used, rather than unbound concentrations, because they are compared with nominal doses used in the in vitro assays (biokinetics in the toxicogenomics incubations were not measured)."}, "androgen receptor (AR)": {"system": "androgen receptor (AR)", "parameters": "method as in ToxCast", "conditions": "ref ToxCast, cited from earlier work"}, "androgen receptor [6]": {"system": "androgen receptor", "parameters": "method as in ToxCast database", "conditions": "ref ToxCast database; cited from earlier work"}, "Human MRP4": {"target": "Human MRP4 (Homo sapiens, UniProt O15439)", "conditions": "not told"}, "estrogen receptor (ER)": {"system": "estrogen receptor (ER)", "conditions": "ref ToxCast, cited from earlier work"}, "androgen receptor [7]": {"system": "androgen receptor", "parameters": "method as in ToxCast database", "conditions": "ref ToxCast database; cited from earlier work", "remark": "listed apart in the source"}, "Human OAT3": {"target": "Human OAT3 (Homo sapiens, UniProt Q8TCC7)", "sequence (Q8TCC7 whole entry)": "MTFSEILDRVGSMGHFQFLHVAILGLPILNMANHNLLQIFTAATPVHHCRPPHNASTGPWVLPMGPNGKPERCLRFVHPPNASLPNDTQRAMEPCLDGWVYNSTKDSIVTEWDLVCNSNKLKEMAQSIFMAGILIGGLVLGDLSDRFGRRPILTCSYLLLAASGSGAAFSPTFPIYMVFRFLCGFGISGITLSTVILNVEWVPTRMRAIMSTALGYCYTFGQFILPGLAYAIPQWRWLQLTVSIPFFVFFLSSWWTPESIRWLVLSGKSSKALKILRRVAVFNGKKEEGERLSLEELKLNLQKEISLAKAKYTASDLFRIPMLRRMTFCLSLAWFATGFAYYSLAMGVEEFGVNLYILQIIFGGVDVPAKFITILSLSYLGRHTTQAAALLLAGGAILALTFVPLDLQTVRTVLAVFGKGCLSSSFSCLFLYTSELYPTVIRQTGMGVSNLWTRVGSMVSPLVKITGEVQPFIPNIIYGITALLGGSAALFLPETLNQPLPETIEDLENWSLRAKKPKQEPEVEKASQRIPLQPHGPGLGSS"}, "[8]": {"system": "HepG2 reporter cell lines", "assay": "ToxProfiler cell stress assay", "format": "cell-based, human"}, "[9]": {"assay": "Deterministic PBPK model of plasma concentrations", "parameters": "species or system human", "conditions": "deterministic PBPK and Fup"}, "Human MDR1": {"target": "Human MDR1 (Homo sapiens, UniProt P08183)", "sequence (P08183 whole entry)": "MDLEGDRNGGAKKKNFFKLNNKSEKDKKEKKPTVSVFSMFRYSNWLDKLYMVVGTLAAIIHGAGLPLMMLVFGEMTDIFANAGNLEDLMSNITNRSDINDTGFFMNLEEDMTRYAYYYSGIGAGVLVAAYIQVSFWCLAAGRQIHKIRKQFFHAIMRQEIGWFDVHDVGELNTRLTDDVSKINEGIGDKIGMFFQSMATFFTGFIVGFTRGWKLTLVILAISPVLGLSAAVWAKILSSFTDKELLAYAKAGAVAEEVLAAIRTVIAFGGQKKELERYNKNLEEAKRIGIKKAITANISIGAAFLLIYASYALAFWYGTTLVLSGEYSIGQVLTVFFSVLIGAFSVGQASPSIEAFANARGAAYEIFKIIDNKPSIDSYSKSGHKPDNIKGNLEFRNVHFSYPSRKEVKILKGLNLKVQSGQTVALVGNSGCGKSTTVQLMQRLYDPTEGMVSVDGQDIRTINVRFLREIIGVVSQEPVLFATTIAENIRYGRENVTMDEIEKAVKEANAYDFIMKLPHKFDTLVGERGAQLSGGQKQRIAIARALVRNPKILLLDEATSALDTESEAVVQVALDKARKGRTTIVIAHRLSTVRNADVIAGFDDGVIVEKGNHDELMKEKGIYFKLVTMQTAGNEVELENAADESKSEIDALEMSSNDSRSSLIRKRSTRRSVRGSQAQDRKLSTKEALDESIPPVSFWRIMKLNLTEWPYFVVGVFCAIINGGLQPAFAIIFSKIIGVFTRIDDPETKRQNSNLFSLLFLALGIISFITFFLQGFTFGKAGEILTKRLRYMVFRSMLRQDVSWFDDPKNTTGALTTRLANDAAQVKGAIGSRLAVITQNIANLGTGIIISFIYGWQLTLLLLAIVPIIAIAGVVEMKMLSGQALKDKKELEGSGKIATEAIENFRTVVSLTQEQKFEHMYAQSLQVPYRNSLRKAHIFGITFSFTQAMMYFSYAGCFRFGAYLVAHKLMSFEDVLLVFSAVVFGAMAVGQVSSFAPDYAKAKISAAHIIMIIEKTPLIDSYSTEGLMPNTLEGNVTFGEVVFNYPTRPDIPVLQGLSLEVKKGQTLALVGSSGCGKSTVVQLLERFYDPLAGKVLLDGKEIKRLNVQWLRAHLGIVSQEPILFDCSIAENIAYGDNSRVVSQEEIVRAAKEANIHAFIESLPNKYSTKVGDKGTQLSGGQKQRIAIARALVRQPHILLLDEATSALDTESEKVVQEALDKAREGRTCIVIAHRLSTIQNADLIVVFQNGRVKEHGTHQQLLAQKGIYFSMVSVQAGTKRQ", "conditions": "not told"}, "estrogen receptor [10]": {"system": "estrogen receptor", "parameters": "method as in ToxCast database", "conditions": "ref ToxCast database; cited from earlier work", "remark": "listed apart in the source"}, "Aromatase": {"system": "Aromatase", "parameters": "method as in ToxCast database", "conditions": "ref ToxCast database; cited from earlier work"}, "Human MRP2": {"target": "Human MRP2 (Homo sapiens, UniProt Q92887)", "sequence (Q92887 whole entry)": "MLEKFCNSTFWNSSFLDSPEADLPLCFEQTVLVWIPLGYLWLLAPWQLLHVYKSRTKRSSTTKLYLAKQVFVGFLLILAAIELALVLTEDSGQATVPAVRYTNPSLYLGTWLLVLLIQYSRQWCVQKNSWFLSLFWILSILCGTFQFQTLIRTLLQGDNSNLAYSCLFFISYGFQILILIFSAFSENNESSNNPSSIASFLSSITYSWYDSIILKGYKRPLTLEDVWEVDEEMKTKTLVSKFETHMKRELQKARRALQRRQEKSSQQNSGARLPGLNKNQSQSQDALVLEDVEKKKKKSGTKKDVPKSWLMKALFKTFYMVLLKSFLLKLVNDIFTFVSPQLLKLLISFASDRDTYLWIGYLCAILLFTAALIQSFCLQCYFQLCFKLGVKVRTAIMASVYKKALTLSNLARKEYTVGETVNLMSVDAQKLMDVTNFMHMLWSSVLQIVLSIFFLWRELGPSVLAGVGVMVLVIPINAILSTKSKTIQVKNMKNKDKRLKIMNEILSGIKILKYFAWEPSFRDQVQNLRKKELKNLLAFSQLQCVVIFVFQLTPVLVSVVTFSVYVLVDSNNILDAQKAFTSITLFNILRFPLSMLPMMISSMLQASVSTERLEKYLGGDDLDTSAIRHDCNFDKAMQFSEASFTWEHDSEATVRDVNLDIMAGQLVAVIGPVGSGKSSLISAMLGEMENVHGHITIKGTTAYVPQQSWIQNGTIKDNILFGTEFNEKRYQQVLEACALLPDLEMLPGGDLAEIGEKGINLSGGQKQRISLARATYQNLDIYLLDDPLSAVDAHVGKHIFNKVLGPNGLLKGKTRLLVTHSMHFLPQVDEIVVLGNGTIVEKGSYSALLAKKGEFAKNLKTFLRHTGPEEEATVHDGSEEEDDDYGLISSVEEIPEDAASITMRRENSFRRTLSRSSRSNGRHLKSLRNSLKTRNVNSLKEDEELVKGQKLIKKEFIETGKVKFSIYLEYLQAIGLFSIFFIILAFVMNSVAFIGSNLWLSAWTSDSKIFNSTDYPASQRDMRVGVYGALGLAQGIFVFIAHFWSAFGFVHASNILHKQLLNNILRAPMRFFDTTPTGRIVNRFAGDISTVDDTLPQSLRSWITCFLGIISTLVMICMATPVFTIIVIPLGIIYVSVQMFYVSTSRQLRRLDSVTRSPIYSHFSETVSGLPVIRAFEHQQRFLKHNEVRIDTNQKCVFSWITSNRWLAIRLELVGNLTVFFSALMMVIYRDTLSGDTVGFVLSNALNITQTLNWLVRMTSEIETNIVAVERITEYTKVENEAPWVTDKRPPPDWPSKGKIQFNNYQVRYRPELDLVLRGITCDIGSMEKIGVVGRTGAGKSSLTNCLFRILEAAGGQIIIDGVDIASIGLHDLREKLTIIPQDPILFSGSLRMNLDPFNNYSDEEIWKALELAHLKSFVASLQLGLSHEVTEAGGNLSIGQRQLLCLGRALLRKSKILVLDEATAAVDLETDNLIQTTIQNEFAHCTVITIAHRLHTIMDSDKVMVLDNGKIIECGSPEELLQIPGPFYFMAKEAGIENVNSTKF", "conditions": "not told"}, "acetylcholinesterase (h)": {"target": "acetylcholinesterase (h) (Homo sapiens, UniProt P22303)", "sequence (P22303 32-614)": "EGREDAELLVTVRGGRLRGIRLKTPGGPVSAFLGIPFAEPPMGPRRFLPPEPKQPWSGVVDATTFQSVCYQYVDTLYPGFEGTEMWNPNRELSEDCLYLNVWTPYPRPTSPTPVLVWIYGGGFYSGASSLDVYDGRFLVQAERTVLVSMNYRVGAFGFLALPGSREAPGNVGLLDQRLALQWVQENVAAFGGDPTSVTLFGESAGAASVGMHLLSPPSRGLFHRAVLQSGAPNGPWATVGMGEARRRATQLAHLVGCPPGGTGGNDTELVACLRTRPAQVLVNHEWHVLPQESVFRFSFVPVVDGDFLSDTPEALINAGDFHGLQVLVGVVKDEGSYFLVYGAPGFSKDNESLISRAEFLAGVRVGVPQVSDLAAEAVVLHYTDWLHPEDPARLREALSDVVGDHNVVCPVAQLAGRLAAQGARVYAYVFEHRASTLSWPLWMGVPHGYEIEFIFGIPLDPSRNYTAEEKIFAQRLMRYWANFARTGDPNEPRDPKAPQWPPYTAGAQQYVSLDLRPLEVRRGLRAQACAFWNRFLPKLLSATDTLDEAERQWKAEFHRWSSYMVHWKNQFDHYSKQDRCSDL", "assay": "Pharmacology profiling: acetylcholinesterase", "format": "biochemical"}, "COX1(h)": {"target": "COX1(h) (Homo sapiens, UniProt P23219)", "sequence (P23219 24-599)": "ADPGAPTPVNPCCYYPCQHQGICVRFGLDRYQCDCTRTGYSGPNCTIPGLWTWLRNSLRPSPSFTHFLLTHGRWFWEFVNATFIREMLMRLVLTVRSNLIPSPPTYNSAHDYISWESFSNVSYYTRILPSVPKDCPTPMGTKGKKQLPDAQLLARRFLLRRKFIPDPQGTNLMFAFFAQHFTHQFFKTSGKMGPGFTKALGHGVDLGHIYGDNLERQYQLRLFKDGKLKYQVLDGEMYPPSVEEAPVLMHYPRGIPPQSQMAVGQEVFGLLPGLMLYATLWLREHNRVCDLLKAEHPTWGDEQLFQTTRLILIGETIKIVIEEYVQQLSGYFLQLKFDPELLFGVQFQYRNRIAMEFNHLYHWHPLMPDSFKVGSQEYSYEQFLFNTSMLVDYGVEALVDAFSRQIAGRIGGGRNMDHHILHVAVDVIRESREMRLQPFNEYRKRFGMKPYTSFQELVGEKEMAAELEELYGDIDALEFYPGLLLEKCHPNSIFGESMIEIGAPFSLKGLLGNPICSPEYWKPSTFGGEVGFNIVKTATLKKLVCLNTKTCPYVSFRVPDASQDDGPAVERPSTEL", "assay": "Pharmacology profiling: COX1", "format": "biochemical"}, "rats": {"system": "rats", "conditions": "teratogenic and embryotoxic effects; ref SCCS, 2023b; cited from earlier work"}, "androgen receptor [11]": {"system": "androgen receptor", "parameters": "method as in ToxCast database", "conditions": "ref ToxCast database; cited from earlier work", "remark": "listed apart in the source"}, "hPTCs": {"system": "hPTCs", "conditions": "human, 72 h"}, "COX2(h)": {"target": "T1, COX2(h) (Homo sapiens, UniProt P35354)", "T1 sequence (P35354 18-604)": "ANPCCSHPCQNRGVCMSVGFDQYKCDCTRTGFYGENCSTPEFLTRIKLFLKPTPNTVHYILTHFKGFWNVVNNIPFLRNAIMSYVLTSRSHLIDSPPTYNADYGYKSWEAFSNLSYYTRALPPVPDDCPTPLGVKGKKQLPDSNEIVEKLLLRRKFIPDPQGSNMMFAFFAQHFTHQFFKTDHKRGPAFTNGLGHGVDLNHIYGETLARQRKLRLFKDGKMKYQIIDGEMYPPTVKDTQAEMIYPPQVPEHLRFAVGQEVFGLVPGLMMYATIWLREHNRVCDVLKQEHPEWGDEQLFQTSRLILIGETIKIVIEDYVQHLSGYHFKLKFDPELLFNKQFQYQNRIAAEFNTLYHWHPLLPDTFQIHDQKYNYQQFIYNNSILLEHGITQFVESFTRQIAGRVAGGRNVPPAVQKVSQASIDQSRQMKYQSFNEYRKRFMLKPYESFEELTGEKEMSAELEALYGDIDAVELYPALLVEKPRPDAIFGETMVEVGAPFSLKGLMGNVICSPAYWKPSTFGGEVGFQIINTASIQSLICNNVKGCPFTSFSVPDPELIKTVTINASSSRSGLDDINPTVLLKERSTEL", "assay": "Pharmacology profiling: COX2", "format": "biochemical"}, "thyroid pathway [12]": {"system": "thyroid pathway", "parameters": "method as in ToxCast database", "conditions": "ref ToxCast database; cited from earlier work", "remark": "listed apart in the source"}, "estrogen receptor [13]": {"system": "estrogen receptor", "parameters": "method as in ToxCast database", "conditions": "ref ToxCast database; cited from earlier work", "remark": "listed apart in the source"}, "[14]": {"system": "Thyroid (TR and TPO only)", "parameters": "method as in ToxCast", "conditions": "ref ToxCast, cited from earlier work"}, "THRa": {"system": "THRa", "parameters": "method as in ToxCast database", "conditions": "ref ToxCast database; cited from earlier work"}, "Human OAT2v1": {"target": "Human OAT2v1 (Homo sapiens, UniProt Q9Y694)", "sequence (Q9Y694 1-546 isoform Q9Y694-2)": "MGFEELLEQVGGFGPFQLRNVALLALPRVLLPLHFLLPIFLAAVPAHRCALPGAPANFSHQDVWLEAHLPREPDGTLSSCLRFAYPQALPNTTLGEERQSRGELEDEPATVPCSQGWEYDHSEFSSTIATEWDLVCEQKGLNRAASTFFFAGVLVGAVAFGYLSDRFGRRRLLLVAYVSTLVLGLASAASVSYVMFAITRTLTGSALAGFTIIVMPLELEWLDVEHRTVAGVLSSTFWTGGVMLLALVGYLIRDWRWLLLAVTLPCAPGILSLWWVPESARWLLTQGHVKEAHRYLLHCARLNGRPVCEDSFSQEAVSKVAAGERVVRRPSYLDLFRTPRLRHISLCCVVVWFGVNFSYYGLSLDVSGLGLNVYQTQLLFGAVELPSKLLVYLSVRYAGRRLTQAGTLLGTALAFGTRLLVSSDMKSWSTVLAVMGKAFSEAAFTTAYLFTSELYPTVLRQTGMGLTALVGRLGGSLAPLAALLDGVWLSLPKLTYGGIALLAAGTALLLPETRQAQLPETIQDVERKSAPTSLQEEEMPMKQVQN"}},
  "note": "Entries after “also recorded” stand apart in the source; their conditions may differ. Read-outs that look alike come from different tables or passages of the source.",
  "data": [
    {"smiles": "O=C(O)c1ccccc1O", "note": "[SA, salicylic acid]", "values": [
      {"measurement": "Thyroid pathway Regulation of transcription factor activity (TSHR): Call", "setting": "TSHR", "result": "Negative"},
      {"measurement": "Estrogen pathway Reporter protein Agonist: Call", "setting": "estrogen receptor [1]", "result": "Negative"},
      {"measurement": "fraction unbound", "setting": "in vitro", "result": "0.029 to 0.18"},
      {"measurement": "Thyroid pathway mRNA induction: Call", "setting": "thyroid pathway [2]", "result": "Negative"},
      {"measurement": "PoD", "setting": "[3]", "result": "≥10,000 µM"},
      {"measurement": "Effect on panel targets", "setting": "[3]; up to millimolar concentrations", "result": "none of the targets tested were significantly impacted"},
      {"measurement": "Estrogen pathway Dimerisation: Call", "setting": "estrogen receptor [4]", "result": "Negative"},
      {"measurement": "MoIE", "setting": "[5]; PoD method 1 (213 µM) / CI95 Cmax 0.630 µM", "result": 338},
      {"measurement": "MoIE", "setting": "[5]; PoD method 1 (213 µM) / mean Cmax 0.273 µM", "result": 780},
      {"measurement": "MoIE", "setting": "[5]; PoD method 2 ([…]) / CI95 Cmax 0.630 µM", "result": 16},
      {"measurement": "MoIE", "setting": "[5]; PoD method 2 ([…]) / mean Cmax 0.273 µM", "result": 38},
      {"measurement": "Androgen: Experimental Data (call)", "setting": "androgen receptor (AR); Tier 0", "result": "Negative"},
      {"measurement": "Androgen: assays active / assays", "setting": "androgen receptor (AR)", "result": "1/15 active (noise)"},
      {"measurement": "Androgen pathway Reporter protein Antagonist: Call", "setting": "androgen receptor [6]", "result": "Negative"},
      {"measurement": "Substrate of MRP4 (efflux)", "setting": "Human MRP4", "result": "not a substrate"},
      {"measurement": "Estrogen: Experimental Data (call)", "setting": "estrogen receptor (ER); Tier 0", "result": "Negative"},
      {"measurement": "Estrogen: assays active / assays", "setting": "estrogen receptor (ER)", "result": "0/18 active"},
      {"measurement": "Androgen pathway Dimerisation: Call", "setting": "androgen receptor [7]", "result": "Negative"},
      {"measurement": "Substrate of OAT3 (uptake)", "setting": "Human OAT3", "result": "borderline substrate"},
      {"measurement": "PoD", "setting": "[8]; ICAM1 (indicating inflammation), tested 10 μM to 10 mM", "result": "4,000 µM"},
      {"measurement": "Stress pathway reporters activated", "setting": "[8]; seven reporters", "result": "activated only ICAM1"},
      {"measurement": "Exposure of unbound SA compared to unbound BSal", "setting": "[9]", "result": "≥ 5", "unit": "fold"},
      {"measurement": "Substrate of MDR1 (efflux)", "setting": "Human MDR1", "result": "not a substrate"},
      {"measurement": "Estrogen pathway mRNA induction: Call", "setting": "estrogen receptor [10]", "result": "Negative"},
      {"measurement": "Steroidogenesis Aromatase: Call", "setting": "Aromatase", "result": "Negative"},
      {"measurement": "Substrate of MRP2 (efflux)", "setting": "Human MRP2", "result": "not a substrate"},
      {"measurement": "inhibition at 10 µM", "setting": "acetylcholinesterase (h); 10 µM SA, two technical replicates", "result": 25.4, "unit": "%"},
      {"measurement": "Inhibition of acetylcholinesterase, follow-up", "setting": "acetylcholinesterase (h); 10 μM to 1 mM SA", "result": "≤ 5", "unit": "%"},
      {"measurement": "Inhibition of COX1, screening", "setting": "COX1(h); 10 µM", "result": "did not inhibit"},
      {"measurement": "Inhibition of COX1, follow-up", "setting": "COX1(h); up to 10 mM", "result": "did not inhibit; also recorded: no effect"},
      {"measurement": "Fraction unbound in the plasma (Fup)", "result": "3 to ∼20"},
      {"measurement": "NOAEL", "setting": "rats", "result": 75, "unit": "mg/kg bw"},
      {"measurement": "Androgen pathway Reporter protein Agonist: Call", "setting": "androgen receptor [11]", "result": "Negative"},
      {"measurement": "PoD", "setting": "hPTCs", "result": ">300", "unit": "µM"},
      {"measurement": "IC50", "setting": "COX2(h)", "result": "> 10", "unit": "mM"},
      {"measurement": "Inhibition of COX2, screening", "setting": "COX2(h); 10 µM", "result": "did not inhibit"},
      {"measurement": "inhibition at 10000 µM", "setting": "COX2(h); 10 mM", "result": 29, "unit": "%"},
      {"measurement": "Thyroid pathway Reporter protein Agonist: Call", "setting": "thyroid pathway [12]", "result": "Negative"},
      {"measurement": "Estrogen pathway Reporter protein Antagonist: Call", "setting": "estrogen receptor [13]", "result": "Negative"},
      {"measurement": "Thyroid (TR and TPO only): Experimental Data (call)", "setting": "[14]; Tier 0", "result": "Negative"},
      {"measurement": "Thyroid (TR and TPO only): assays active / assays", "setting": "[14]", "result": "0/11 active"},
      {"measurement": "Thyroid pathway receptor binding (THRa): Call", "setting": "THRa", "result": "Negative"},
      {"measurement": "Substrate of OAT2v1 (uptake)", "setting": "Human OAT2v1", "result": "not a substrate"}
    ]}
  ]
}
